Data from ChEMBL document CHEMBL1201862, “PubChem BioAssay data set” (2004).
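Briefly, cells in 96-well plates were exposed to five compound concentrations for 48 h, and endpoints were estimated by linear interpolation. Abbreviation: GI50, concentration required for 50% inhibition of growth.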 Activity calls are given as the source filed them. Cut-off read from the data, not from the text of the source: active = GI50 up to about 1.1 µM and inactive = higher.

How the values were obtained:
Assay in all cases: NCI anticancer screen, dose series, 48 h
[1] = system: CCRF-CEM
[2] = system: COLO 205
[3] = system: DMS-273
[4] = system: HCT-15
[5] = system: K562
[6] = system: KM-20L2
[7] = system: LXFL 529
[8] = system: MOLT-4
[9] = system: Malme-3M
[10] = system: NCI-H460
[11] = system: SK-MEL-28
[12] = system: SNB-78
[13] = system: SW-620
[14] = system: HOP-92
[15] = system: XF498

| SMILES | GI50 [1] | GI50 [2] | GI50 [3] | GI50 [4] | GI50 [5] | GI50 [6] | GI50 [7] | GI50 [8] | GI50 [9] | GI50 [10] | GI50 [11] | GI50 [12] | GI50 [13] | GI50 [14] | GI50 [15] |
| --- | --- | --- | --- | --- | --- | --- | --- | --- | --- | --- | --- | --- | --- | --- | --- |
| CS(=O)(=O)N(CCC#N)c1ccc(/C=N/NC(=O)CC(=O)Nc2cccc(Cl)c2)cc1 | > 100 µM (inactive) | > 100 µM (inactive) | > 100 µM (inactive) | > 100 µM | > 100 µM (inactive) | > 100 µM (inactive) | > 100 µM (inactive) | > 100 µM (inactive) | > 100 µM (inactive) | > 100 µM (inactive) | > 100 µM (inactive) | > 100 µM (inactive) | > 100 µM (inactive) | – | – |
| CC1CCc2c(sc3ncnc(N/N=C/c4ccc(Cl)c(Cl)c4)c23)C1 (stereo not given) | 4.3 µM (inactive) | 6.17 µM (inactive) | 7.98 µM (inactive) | 9.73 µM | 4.4 µM (inactive) | 4.69 µM (inactive) | – | 7.4 µM (inactive) | 31.2 µM (inactive) | 7.4 µM (inactive) | 21.2 µM (inactive) | – | 6.07 µM (inactive) | – | – |
| Nc1ccccc1C(=O)/C=C/c1ccccc1O | 33.9 µM (inactive) | > 100 µM (inactive) | – | – | 29.8 µM (inactive) | > 100 µM (inactive) | 39.2 µM (inactive) | 31.3 µM (inactive) | > 100 µM (inactive) | 67.1 µM (inactive) | > 100 µM (inactive) | 41.5 µM (inactive) | 35.4 µM (inactive) | 20.6 µM (inactive) | > 100 µM (inactive) |
| Cc1cc(-c2ccccc2)nc(Nc2nc3ccccc3o2)n1 | 74 µM (inactive) | > 100 µM (inactive) | – | > 100 µM | > 100 µM (inactive) | > 100 µM (inactive) | > 100 µM (inactive) | > 100 µM (inactive) | > 100 µM (inactive) | > 100 µM (inactive) | > 100 µM (inactive) | > 100 µM (inactive) | > 100 µM (inactive) | 89.3 µM (inactive) | > 100 µM (inactive) |
| COc1cc([C@@H]2c3cc4c(cc3[C@@H](NCc3ccccc3F)C3COC(=O)[C@@H]32)OCO4)cc(OC)c1O (stereo not given in full) | 1.49 µM (inactive) | 17.7 µM (inactive) | 1.21 µM (inactive) | 1.63 µM | 1.47 µM (inactive) | 2.71 µM (inactive) | 11.3 µM (inactive) | 0.425 µM (active) | 5.94 µM (inactive) | 0.56 µM (active) | 12.2 µM (inactive) | 25.8 µM (inactive) | 0.851 µM (active) | 4.04 µM (inactive) | – |
